Reference: patent US20160089371A1, “Combination of Kinase Inhibitors and Uses Thereof” (INTELLIKINE, LLC, priority 2013, published 2016)
Where two headings read alike, the source gives them in different places.

How the values were obtained:
PI3K δ = PI3K δ (Homo sapiens, UniProt O00329); test: PI 3-Kinase (human) HTRF assay, p110δ/p85α
PI3K β = PI3K β (Homo sapiens, UniProt P42338); test: PI 3-Kinase (human) HTRF assay, p110β/p85α
PI3K γ = PI3K γ (Homo sapiens, UniProt P48736); test: PI 3-Kinase (human) HTRF assay, p110γ
MDA-MB-361 = MDA-MB-361 proliferation; type: cell-based; conditions: Homo sapiens
PI3K α = PI3K α (Homo sapiens, UniProt P42336); test: PI 3-Kinase (human) HTRF assay, p110α/p85α
mTOR = biological target: T1, mTOR (Homo sapiens, UniProt P42345); test: Inhibition assay of mTOR (radiometric or LanthaScreen TR-FRET); type: biochemical; conditions: read-out: mTORC IC50
T1 construct: purchased Invitrogen

T47D = T47D proliferation; type: cell-based; conditions: Homo sapiens; T47D cell line
B cell function = B cell function in vivo, antibody production after TNP-Ficoll immunization; conditions: mice immunized with TNP-Ficoll; 70 mg/kg GDC0941; 30, 60 or 120 mg/kg Compound A; 7 days; FIG. 8
Method: Mice were immunized with TNP-Ficoll and treated with 1) vehicle; 2) 70 mg/kg GDC0941; 3) 30 mg/kg Compound A; 4) 60 mg/kg Compound A; or 5) 120 mg/kg Compound A for 7 days. Antibody production was measured as a percentage of control group that were treated with vehicle.

marginal zone B cells = test: Marginal zone B cells in mouse spleen (FACS); conditions: 70 mg/kg Pan-PI3K inhibitor; 60 mg/kg Compound A; spleens 2 hrs after last dose
[1] = system: anti-TNP antibody production (B cell function); test: TNP-Ficoll T-cell independent B-cell activation assay; type: in vivo, mice; conditions: 70 mg/kg GDC0941; 30, 60 or 120 mg/kg Compound A; 7 days
Method: To test the effects of the compounds of the present invention in suppressing T cell independent antibody production, the TNP-Ficoll B-cell activation assay is used as described herein. Compounds of the present invention are dissolved in an appropriate vehicle (e.g. 5% 1-methyl-2-pyrrolidinone, 85% polyethylene glycol 400, 10% Solutor). Compounds are administered orally approximately lhr before TNP-Ficoll treatment to 4-10 week old mice. To study the effects of the compounds on B-cell activation, one set of mice are grouped according to the following table:
Four animals in group 1, and eight animals in groups 2 to 7 are euthanized in CO2 2 hours after the last compound administration on day 7. […]
Serum samples are analyzed for anti-TNP antibody titers by ELISA as described herein. […] HRP substrate (200 μl ABTS solution+30% H2O2+10 ml citrate buffer) is added to each well at 100 μl/well, incubated 2-20 minutes in the dark and the amount of anti-TNP IgG3 is determined spectrophotometrically at 405 nm. Similarly, anti-TNP IgM and total anti-TNP Ab are determined using anti-mouse IgM-HRP and anti-mouse Ig-HRP respectively.
Antibody production was measured using ELISA and plotted as a percentage of control group that were treated with vehicle.

[2] = system: MDA-MB-361 (PI3Kα/HER2 carcinoma) tumors; test: In vivo efficacy in xenogenic mouse model of breast cancer; design: species or system nude mice; conditions: 70 mg/kg Pan-PI3K inhibitor; 60 mg/kg compound A
Method: Blood glucose was monitored periodically following administration of treatment.
Treatment of tumors (MDA-MB-361) with compounds was discontinued on Day 30. Tumors were measured every 2-5 days.

PC3 = PC3 proliferation; type: cell-based; conditions: Homo sapiens, PC-3; PC3 cell line (compounds before 438)

Chain of PI3K α (P42336 whole entry): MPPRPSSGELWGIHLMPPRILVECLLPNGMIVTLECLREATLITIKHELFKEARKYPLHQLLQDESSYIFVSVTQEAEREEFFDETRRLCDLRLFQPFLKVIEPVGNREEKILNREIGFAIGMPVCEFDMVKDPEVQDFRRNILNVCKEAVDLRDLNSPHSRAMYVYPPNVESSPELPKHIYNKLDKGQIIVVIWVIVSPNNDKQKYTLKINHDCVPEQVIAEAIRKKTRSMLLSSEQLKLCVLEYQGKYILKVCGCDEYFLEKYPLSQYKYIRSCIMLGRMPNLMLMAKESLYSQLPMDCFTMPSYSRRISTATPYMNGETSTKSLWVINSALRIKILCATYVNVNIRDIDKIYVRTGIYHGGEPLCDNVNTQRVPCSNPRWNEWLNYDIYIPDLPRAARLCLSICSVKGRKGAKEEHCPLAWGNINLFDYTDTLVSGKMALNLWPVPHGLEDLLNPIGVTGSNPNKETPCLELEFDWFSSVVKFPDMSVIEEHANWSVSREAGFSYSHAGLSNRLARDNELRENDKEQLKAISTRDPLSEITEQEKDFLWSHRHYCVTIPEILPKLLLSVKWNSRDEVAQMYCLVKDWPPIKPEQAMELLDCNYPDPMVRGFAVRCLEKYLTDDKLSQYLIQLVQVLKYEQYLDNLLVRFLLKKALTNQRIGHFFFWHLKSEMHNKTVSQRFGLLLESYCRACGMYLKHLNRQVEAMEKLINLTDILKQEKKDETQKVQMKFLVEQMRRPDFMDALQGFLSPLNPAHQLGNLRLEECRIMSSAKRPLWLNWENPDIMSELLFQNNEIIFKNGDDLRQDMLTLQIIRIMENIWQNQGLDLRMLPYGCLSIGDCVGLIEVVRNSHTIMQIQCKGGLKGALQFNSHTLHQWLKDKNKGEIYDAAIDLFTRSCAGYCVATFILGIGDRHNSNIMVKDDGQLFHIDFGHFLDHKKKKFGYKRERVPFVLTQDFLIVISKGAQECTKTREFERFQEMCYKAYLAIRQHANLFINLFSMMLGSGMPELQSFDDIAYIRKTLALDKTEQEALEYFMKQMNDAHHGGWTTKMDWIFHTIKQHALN
Chain of PI3K α (P27986 whole entry partner): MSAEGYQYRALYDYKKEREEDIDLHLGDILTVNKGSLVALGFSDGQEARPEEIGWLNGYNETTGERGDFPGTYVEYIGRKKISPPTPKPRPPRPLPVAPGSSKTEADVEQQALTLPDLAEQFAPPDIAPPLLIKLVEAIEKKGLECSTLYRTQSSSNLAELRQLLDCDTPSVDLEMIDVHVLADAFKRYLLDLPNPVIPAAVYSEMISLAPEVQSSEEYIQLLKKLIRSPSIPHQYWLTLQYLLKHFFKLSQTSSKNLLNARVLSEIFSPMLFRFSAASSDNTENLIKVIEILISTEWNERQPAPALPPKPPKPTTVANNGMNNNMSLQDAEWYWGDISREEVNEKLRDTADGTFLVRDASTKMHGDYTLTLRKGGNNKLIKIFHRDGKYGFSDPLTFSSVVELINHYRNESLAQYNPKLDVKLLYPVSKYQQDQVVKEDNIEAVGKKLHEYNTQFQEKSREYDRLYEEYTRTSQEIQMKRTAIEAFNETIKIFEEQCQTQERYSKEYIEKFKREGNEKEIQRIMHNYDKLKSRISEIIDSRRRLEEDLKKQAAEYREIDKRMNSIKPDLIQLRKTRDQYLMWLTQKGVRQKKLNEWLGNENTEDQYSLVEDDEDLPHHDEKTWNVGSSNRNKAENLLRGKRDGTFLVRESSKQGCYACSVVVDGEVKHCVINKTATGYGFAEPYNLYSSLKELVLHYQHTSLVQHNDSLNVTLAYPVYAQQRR
Chain of PI3K β (P42338 whole entry): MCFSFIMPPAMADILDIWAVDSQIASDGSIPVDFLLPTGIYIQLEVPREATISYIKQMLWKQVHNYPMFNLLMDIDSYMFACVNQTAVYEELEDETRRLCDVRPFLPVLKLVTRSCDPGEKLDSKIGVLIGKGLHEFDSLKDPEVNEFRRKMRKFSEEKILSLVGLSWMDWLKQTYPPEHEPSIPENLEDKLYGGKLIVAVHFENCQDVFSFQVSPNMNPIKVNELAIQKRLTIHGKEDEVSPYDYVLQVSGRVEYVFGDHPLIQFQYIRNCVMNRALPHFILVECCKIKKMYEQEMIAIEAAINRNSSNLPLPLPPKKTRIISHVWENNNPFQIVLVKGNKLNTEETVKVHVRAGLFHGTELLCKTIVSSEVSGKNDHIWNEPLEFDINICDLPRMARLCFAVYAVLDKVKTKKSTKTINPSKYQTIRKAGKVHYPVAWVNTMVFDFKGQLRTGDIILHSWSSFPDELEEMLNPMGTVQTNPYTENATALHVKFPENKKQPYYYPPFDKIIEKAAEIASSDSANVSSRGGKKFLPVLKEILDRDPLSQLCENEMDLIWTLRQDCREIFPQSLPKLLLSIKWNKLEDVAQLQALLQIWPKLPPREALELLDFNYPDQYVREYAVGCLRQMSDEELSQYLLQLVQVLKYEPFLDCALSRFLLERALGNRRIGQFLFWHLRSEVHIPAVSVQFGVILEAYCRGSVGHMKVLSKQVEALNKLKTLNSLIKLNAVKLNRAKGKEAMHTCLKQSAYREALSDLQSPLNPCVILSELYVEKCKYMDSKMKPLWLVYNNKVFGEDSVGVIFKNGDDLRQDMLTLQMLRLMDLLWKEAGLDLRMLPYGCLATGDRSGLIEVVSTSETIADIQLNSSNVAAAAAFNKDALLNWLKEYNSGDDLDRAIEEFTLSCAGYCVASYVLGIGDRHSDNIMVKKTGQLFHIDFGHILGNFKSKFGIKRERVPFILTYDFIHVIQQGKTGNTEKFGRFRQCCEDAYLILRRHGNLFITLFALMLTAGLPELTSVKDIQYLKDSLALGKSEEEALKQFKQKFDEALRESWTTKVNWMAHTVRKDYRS
Chain of PI3K β (P27986 whole entry partner): as the sequence (P27986 whole entry partner) above
Chain of PI3K γ (P48736 whole entry): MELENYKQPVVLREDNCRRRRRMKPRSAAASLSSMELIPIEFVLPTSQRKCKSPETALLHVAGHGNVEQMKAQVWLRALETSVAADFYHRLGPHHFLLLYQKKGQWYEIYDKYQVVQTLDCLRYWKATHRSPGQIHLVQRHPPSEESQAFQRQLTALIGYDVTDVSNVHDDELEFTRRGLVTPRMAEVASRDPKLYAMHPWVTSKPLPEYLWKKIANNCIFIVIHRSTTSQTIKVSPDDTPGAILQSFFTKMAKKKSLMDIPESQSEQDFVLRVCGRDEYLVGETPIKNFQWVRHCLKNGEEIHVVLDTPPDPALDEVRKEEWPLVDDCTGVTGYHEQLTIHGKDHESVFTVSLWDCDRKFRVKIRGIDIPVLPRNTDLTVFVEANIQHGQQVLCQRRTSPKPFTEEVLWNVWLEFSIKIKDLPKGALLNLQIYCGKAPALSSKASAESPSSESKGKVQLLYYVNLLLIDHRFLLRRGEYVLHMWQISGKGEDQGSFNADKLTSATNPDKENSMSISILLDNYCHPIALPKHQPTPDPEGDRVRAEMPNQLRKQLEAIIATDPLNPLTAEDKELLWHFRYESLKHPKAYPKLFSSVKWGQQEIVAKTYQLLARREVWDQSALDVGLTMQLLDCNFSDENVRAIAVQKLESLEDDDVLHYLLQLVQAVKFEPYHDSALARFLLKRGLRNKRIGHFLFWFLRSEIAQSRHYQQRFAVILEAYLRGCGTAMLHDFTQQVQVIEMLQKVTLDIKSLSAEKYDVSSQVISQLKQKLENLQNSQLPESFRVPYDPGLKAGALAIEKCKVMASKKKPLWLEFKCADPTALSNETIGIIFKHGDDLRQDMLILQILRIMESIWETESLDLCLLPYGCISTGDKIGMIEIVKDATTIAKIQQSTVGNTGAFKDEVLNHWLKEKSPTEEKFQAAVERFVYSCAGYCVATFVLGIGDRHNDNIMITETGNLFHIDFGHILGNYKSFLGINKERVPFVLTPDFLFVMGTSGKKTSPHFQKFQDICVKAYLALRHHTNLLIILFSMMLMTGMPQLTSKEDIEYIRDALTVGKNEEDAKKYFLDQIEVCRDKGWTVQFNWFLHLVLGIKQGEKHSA
Chain of PI3K δ (O00329 whole entry): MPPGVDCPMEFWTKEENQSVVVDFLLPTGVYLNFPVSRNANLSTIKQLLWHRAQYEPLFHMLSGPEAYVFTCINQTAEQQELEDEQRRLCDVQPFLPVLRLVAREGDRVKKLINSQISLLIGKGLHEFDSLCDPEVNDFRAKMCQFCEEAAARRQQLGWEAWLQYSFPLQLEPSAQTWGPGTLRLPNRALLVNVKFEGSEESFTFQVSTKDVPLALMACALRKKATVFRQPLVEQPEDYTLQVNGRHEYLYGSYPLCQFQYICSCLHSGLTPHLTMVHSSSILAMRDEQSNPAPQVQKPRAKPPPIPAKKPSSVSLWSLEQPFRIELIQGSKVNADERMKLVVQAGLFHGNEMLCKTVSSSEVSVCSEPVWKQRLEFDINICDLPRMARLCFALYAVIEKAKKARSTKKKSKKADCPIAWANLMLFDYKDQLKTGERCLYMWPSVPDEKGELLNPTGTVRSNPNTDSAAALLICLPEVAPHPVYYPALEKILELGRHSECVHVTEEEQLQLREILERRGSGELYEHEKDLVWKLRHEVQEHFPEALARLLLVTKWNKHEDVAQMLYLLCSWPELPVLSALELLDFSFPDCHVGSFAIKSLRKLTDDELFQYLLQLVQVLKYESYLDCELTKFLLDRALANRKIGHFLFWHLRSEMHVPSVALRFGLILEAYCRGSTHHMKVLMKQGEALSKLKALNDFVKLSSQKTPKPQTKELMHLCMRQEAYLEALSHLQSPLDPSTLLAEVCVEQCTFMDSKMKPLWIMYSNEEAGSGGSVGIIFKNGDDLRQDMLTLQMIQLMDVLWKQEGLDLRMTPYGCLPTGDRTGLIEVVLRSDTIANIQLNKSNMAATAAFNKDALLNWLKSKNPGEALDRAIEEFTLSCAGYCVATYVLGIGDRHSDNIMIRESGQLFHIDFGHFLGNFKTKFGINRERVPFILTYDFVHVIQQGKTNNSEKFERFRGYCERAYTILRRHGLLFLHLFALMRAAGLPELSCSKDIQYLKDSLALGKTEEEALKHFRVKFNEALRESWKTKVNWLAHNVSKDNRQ
Chain of PI3K δ (P27986 whole entry partner): as the sequence (P27986 whole entry partner) above

IC50 (PI3K δ)	IC50 (PI3K β)	IC50 (PI3K γ)	SMILES	also measured
> 10 µM	> 10 µM	< 0.1 µM	Nc1nc2cc(-c3ccc4ncc(C(=O)N5CC(N6CC[C@@H](O)C6)C5)n4c3)ccc2o1 [Compound 470]	–
–	–	< 10 µM	CC(C)[C@H](N)C(=O)N1CCN(c2cnc3ccc(-c4ccc5oc(N)nc5c4)cc3n2)CC1 [Compound 269]	–
< 10 µM	–	< 0.1 µM	Nc1nc2cc(-c3ccc4ncc(-c5cccnc5)nc4n3)ccc2o1 [Compound 567]	IC50 (MDA-MB-361; MDA-MB-361 cells, Table 4, read-out: MDA-MB-361 proliferation (nM)*): > 10000 nM; IC50 (PI3K α): < 0.1 µM
–	–	< 10 µM	Nc1nc2cc(-c3ccc4ncc(N5CCC(N)CC5)nc4c3)ccc2o1 [Compound 168]	–
–	–	< 1 µM	O=C(c1cnc2ccc(-c3ccc(Cl)c(NS(=O)(=O)c4ccc(F)cc4F)c3)cn12)N1CCOCC1 [Compound 461]	–
< 0.1 µM	< 10 µM	< 0.1 µM	Nc1nc2cc(-c3ccc4ncc(N[C@H]5CC[C@H](O)CC5)nc4c3)ccc2o1 [Compound 128]	IC50 (PI3K α): < 0.1 µM
–	–	< 1 µM	CC(C)[C@@H](N)C(=O)N1CCN(c2cnc3ccc(-c4ccc5oc(N)nc5c4)cc3n2)CC1 [Compound 270]	–
> 10 µM	> 10 µM	> 10 µM	CN1CCN(c2cnc3ccc(-c4ccc5nc(N)oc5c4)cn23)CC1 [Compound 542]	IC50 (PI3K α): > 10 µM
–	–	< 1 µM	CN1CCN(CCNC(=O)c2cnc3ccc(-c4ccc5oc(N)nc5c4)cn23)CC1 [Compound 306]	–
–	–	–	CC1CN(C(=O)c2cnc3ccc(-c4ccc5oc(N)nc5c4)cn23)CCN1 (centres unmarked) [Compound 164]	IC50 (T47D): < 1 µM
< 10 µM	–	< 1 µM	Nc1nc2cc(-c3ccc4ncc(C(=O)N5CC[C@H](F)C5)n4c3)ccc2o1 [Compound 476]	–
–	–	–	CS(=O)(=O)N1CCN(Cc2cc3nc(-c4cccc5[nH]ncc45)nc(N4CCOCC4)c3s2)CC1 [Pan-PI3K inhibitor, GDC0941, reference compound]	B cell function in vivo (antibody production, percentage of vehicle control) (B cell function): blocks B cell function; presence (localization/viability) of marginal zone B cells in mouse spleen (FIG. 9 right panel) (marginal zone B cells): reduced presence of MZB cells; B cell function in vivo, antibody production after TNP-Ficoll (FIG. 8) [1]: blocks B cell function in vivo; tumor weight in breast cancer model (FIG. 9 left panel) [2]: reduction in tumor weight
–	–	–	Nc1nc2cc(-c3ccc4nccc(-c5ccncc5)c4c3)ccc2o1 [Compound 1]	IC50 (PC3): < 1000 nM; IC50 (T47D): < 1 µM
–	–	–	Nc1nc2cc(-c3ccc4ncc(C(=O)N5CC[C@H](n6cccn6)C5)n4c3)ccc2o1 [Compound 478]	PI3K δ IC50 (nM) (PI3K δ): +++ +++
–	–	–	CN1CCN([C@@H]2CCN(c3cnc4ccc(-c5ccc6oc(N)nc6c5)cc4n3)C2)CC1 [Compound 379]	IC50 (mTOR): > 10 µM
< 10 µM	–	< 0.1 µM	Nc1nc2cc(-c3ccc4ncc(N5CC[C@H](N6CCOCC6)C5)nc4c3)ccc2o1 [Compound 375]	–
< 1 µM	< 10 µM	< 10 µM	O=C(c1cnc2ccc(-c3ccc4c(Nc5ccccc5)noc4c3)cn12)N1CCOCC1 [Compound 509]	IC50 (MDA-MB-361; PC-3, read-out: PC3 proliferation (nM)*): < 10000 nM; IC50 (PI3K α): < 0.1 µM
–	–	< 0.1 µM	[2H]c1c(-c2ccc3ncc(C(=O)N4CCOCC4)n3c2)c([2H])c2nc(N)oc2c1[2H] [Compound 531]	–
< 10 µM	< 0.1 µM	–	Nc1nc2cc(-c3ccc4ncc(N5CCNC(=O)C5)nc4c3)ccc2o1 [Compound 135]	–
–	–	< 1 µM	C[C@H]1CN(c2cnc3ccc(-c4ccc5oc(N)nc5c4)cc3n2)CCN1C [Compound 332]	–
< 10 µM	< 1 µM	< 0.1 µM	Nc1nc2cc(-c3ccn4ncc(C(=O)N5CCOCC5)c4c3)cc(Cl)c2o1 [Compound 359]	IC50 (PI3K α): < 0.1 µM
< 1 µM	< 0.1 µM	< 0.1 µM	CN1CCC(NC(=O)c2cnc3ccc(-c4ccc5oc(N)nc5c4)cn23)CC1 [Compound 203]	–

SMILES	IC50 (PI3K δ)	IC50 (PI3K β)	IC50 (PI3K γ)	also measured
Nc1nc2cc(-c3ccc4ncc(N5CC(N6CCOCC6)C5)nc4n3)ccc2o1 [Compound 604]	–	< 10 µM	< 1 µM	IC50 (mTOR; Table 4, PI3K α inhibitors): > 10 µM
CN1CCC(N(C)c2ncnc3ccc(-c4ccc5oc(N)nc5c4)cc23)CC1 [Compound 155]	–	–	< 1 µM	–
